Data on seven molecules can be found in US9650395B2, “Antibacterial compounds and methods for use” (PTC Therapeutics, Inc., priority 2011, dated 2017).

≈ marks a conversion by molar mass, not a printed value. Read-outs that look alike come from different tables or passages of the source.

Test [1] relates to Pseudomonas aeruginosa (P. aeruginosa) 27853. Nature of the test: Antibacterial activity, MIC, P. aeruginosa 27853. In kind it is cell-based. The following applies: Pseudomonas aeruginosa, P. aeruginosa 27853; read-out: MIC 27853. The source says: (§1) The antibacterial activity from a microbroth dilution method may be presented as the minimum inhibitory concentration (MIC in […]). The MIC value is the lowest concentration of a drug which prevents macroscopically visible bacterial growth under test conditions.
Antibacterial activity of test compounds against the Gram-negative bacterium Pseudomonas aeruginosa (P. aeruginosa) 27853 is shown in Table 5.

The test system of test [2] is super sensitive Gram-negative Escherichia coli (E. coli) BAS849. Nature of the test: Antibacterial activity, microbroth dilution MIC, E. coli BAS849. It is filed as cell-based. To be noted: Escherichia coli; E. coli BAS849, microbroth dilution; read-out: MIC, BAS849. In general terms: Dilution methods test growth across graded concentrations, often in twofold steps.
For test [3], the system named is Klebsiella pneumoniae (K. pneumoniae) 35657. Nature of the test: Antibacterial activity, MIC, K. pneumoniae 35657. It is filed as cell-based. The following applies: Klebsiella pneumoniae.
The subject of test [4] is control Gram-negative E. coli 25922 strain. Put plainly: Antibacterial activity, microbroth dilution MIC, E. coli 25922. It is filed as cell-based, Escherichia coli. The following applies: Escherichia coli; E. coli 25922, microbroth dilution; read-out: MIC, 25922.
Test [5] has as its system Gram-positive Staphylococcus aureus (S. aureus) 29213. Nature of the test: Antibacterial activity, microbroth dilution MIC, S. aureus 29213. It is filed as cell-based. The following applies: Staphylococcus aureus; S. aureus 29213, microbroth dilution; read-out: MIC, 29213.
Test [6] concerns Acinetobacter baumannii (A. baumannii) BAA747. Put plainly: Antibacterial activity, MIC, A. baumannii BAA747. It is filed as cell-based. To be noted: Acinetobacter baumannii; A. baumannii BAA747; read-out: MIC BAA747.
The subject of test [7] is resistant A. baumannii MXX2240 (MDR clinical isolate). Nature of the test: Antibacterial activity, MIC, resistant A. baumannii MXX2240. It is filed as cell-based, Acinetobacter baumannii. To be noted: Acinetobacter baumannii, read-out: MIC MMX2240.
In test [8] the test system is quinolone resistant E. coli LZ3111. Nature of the test: Antibacterial activity, MIC, quinolone resistant E. coli LZ3111. To be noted: Escherichia coli, read-out: MIC, LZ3111. It is filed as cell-based, Escherichia coli.
Text: as §1
Mutations in these regions are known to confer a high level resistance to the quinolone class of antibiotics.

In test [9] the test system is resistant K. pneumoniae MXX1232 (MDR clinical isolate). Put plainly: Antibacterial activity, MIC, resistant K. pneumoniae MXX1232. It is filed as cell-based, Klebsiella pneumoniae. The following applies: Klebsiella pneumoniae, read-out: MIC MMX1232.
[10] abbreviates: resistant A. baumannii MMX2240, MDR clinical isolate.
The mark [11] stands for this setting: resistant K. pneumoniae MMX1232, MDR clinical isolate.

One may read the MIC as the lowest concentration that inhibits growth of the organism. As for `CCc1c(-c2cnc(N3CCC(N(C)C)C3)cn2)[nH]c(=O)c(C(=O)O)c1O` (stereo not drawn) [Cpd 314, 6-(5-(3-(dimethylamino)pyrrolidin-1-yl)pyrazin-2-yl)-5-ethyl-4-hydroxy-2-oxo-1,2-dihydropyridine-3-carboxylic acid], the minimum inhibitory concentration (MIC) in test [1] lay in the range of 12.5 to 150 µg/mL (≈ 33.5 to 402 µM); in [2] it was 3.5 to 12.5 µg/mL (≈ 9.37 to 33.5 µM); in [3], 12.5 to 150 µg/mL (≈ 33.5 to 402 µM); in test [4], 12.5 to 150 µg/mL (≈ 33.5 to 402 µM); in test [5], 12.5 to 150 µg/mL (≈ 33.5 to 402 µM); in test [6], 12.5 to 150 µg/mL (≈ 33.5 to 402 µM). The MIC fell in the range of 12.5 to 150 µg/mL (≈ 33.5 to 402 µM) in [7] (setting [10]), 3.5 to 12.5 µg/mL (≈ 9.37 to 33.5 µM) in test [8] and 12.5 to 150 µg/mL (≈ 33.5 to 402 µM) in test [9] (setting [11]).

For the molecule `CCc1c(-c2ccc(N3CC4(CNC4)C3)cc2)[nH]c(=O)c(C(=O)O)c1O` [Cpd 324, 6-(4-(2,6-diazaspiro[3.3]heptan-2-yl)phenyl)-5-ethyl-4-hydroxy-2-oxo-1,2-dihydropyridine-3-carboxylic acid], the MIC in test [1] fell in the range of 12.5 to 150 µg/mL (≈ 35.2 to 422 µM); in test [2] it was 3.5 to 12.5 µg/mL (≈ 9.85 to 35.2 µM); in test [3], 12.5 to 150 µg/mL (≈ 35.2 to 422 µM); in [4], 12.5 to 150 µg/mL (≈ 35.2 to 422 µM); in test [5], 12.5 to 150 µg/mL (≈ 35.2 to 422 µM); in test [6] it was 12.5 to 150 µg/mL (≈ 35.2 to 422 µM). Moreover, the MIC in [7] (setting [10]), in test [8] and in [9] (setting [11]) was 12.5 to 150 µg/mL (≈ 35.2 to 422 µM) each time.

As to `Cc1cc(N2C[C@@H]3[C@@H](N)[C@@H]3C2)ccc1-c1[nH]c(=O)c(C(=O)O)c(O)c1C` [Cpd 318, 6-(4-((1R,5S,6s)-6-amino-3-azabicyclo[3.1.0]hexan-3-yl)-2-methylphenyl)-4-hydroxy-5-methyl-2-oxo-1,2-dihydropyridine-3-carboxylic acid], the MIC in [1] fell in the range of 12.5 to 150 µg/mL (≈ 35.2 to 422 µM); in [2], 3.5 to 12.5 µg/mL (≈ 9.85 to 35.2 µM); in test [3], 12.5 to 150 µg/mL (≈ 35.2 to 422 µM); in test [4] it was 12.5 to 150 µg/mL (≈ 35.2 to 422 µM); in [5], 12.5 to 150 µg/mL (≈ 35.2 to 422 µM); in test [6], 12.5 to 150 µg/mL (≈ 35.2 to 422 µM). The MIC in [7] (setting [10]), in test [8] and in test [9] (setting [11]) was 12.5 to 150 µg/mL (≈ 35.2 to 422 µM) in each case.

As for `CCc1c(-c2ccc(C3=CCN(CC)CC3)cc2)[nH]c(=O)c(C(=O)O)c1O` [Cpd 341, 5-ethyl-6-(4-(1-ethyl-1,2,3,6-tetrahydropyridin-4-yl)phenyl)-4-hydroxy-2-oxo-1,2-dihydropyridine-3-carboxylic acid], the MIC was 12.5 to 150 µg/mL (≈ 33.9 to 407 µM) in test [1]; 1 to 3.5 µg/mL (≈ 2.71 to 9.5 µM) in test [2]; 3.5 to 12.5 µg/mL (≈ 9.5 to 33.9 µM) in test [3]; 12.5 to 150 µg/mL (≈ 33.9 to 407 µM) in [4]; 12.5 to 150 µg/mL (≈ 33.9 to 407 µM) in test [5]; 12.5 to 150 µg/mL (≈ 33.9 to 407 µM) in [6]. The MIC in test [7] fell in the range of 12.5 to 150 µg/mL (≈ 33.9 to 407 µM); in [8], 3.5 to 12.5 µg/mL (≈ 9.5 to 33.9 µM); in test [9] it was 12.5 to 150 µg/mL (≈ 33.9 to 407 µM).

For the molecule `CCc1c(-c2ccc(C3=CCNCC3)cc2)[nH]c(=O)c(C(=O)O)c1O` [Cpd 340, 5-ethyl-4-hydroxy-2-oxo-6-(4-(1,2,3,6-tetrahydropyridin-4-yl)phenyl)-1,2-dihydropyridine-3-carboxylic acid], the MIC in test [1] was in the range of 12.5 to 150 µg/mL (≈ 36.7 to 441 µM); in [2], 3.5 to 12.5 µg/mL (≈ 10.3 to 36.7 µM); in test [3], 3.5 to 12.5 µg/mL (≈ 10.3 to 36.7 µM); in test [4] it was 12.5 to 150 µg/mL (≈ 36.7 to 441 µM); in [5], 12.5 to 150 µg/mL (≈ 36.7 to 441 µM); in [6] it was 12.5 to 150 µg/mL (≈ 36.7 to 441 µM). Further, the minimal inhibitory concentration (MIC) in test [7], in [8] and in test [9] was 12.5 to 150 µg/mL (≈ 36.7 to 441 µM) in each case.

Turning to `CCc1c(-c2ccc(NC)cc2)[nH]c(=O)c(C(=O)O)c1O` [Cpd 326, 5-ethyl-4-hydroxy-6-(4-(methylamino)phenyl)-2-oxo-1,2-dihydropyridine-3-carboxylic acid], the minimum inhibitory concentration (MIC) in test [1] is 12.5 to 150 µg/mL (≈ 43.4 to 520 µM); in [2], less than 1 µg/mL; in test [3] it was 3.5 to 12.5 µg/mL (≈ 12.1 to 43.4 µM); in test [4], 3.5 to 12.5 µg/mL (≈ 12.1 to 43.4 µM); in test [5], 12.5 to 150 µg/mL (≈ 43.4 to 520 µM); in [6], 1 to 3.5 µg/mL (≈ 3.47 to 12.1 µM). In addition, the MIC in test [7] (setting [10]) was 3.5 to 12.5 µg/mL (≈ 12.1 to 43.4 µM); in test [8] it was 12.5 to 150 µg/mL (≈ 43.4 to 520 µM); in [9] (setting [11]), 12.5 to 150 µg/mL (≈ 43.4 to 520 µM).

With `CCc1c(-c2ccc(N3CC4(CCCN4)C3)cc2)[nH]c(=O)c(C(=O)O)c1O` [Cpd 323, 6-(4-(2,5-diazaspiro[3.4]octan-2-yl)phenyl)-5-ethyl-4-hydroxy-2-oxo-1,2-dihydropyridine-3-carboxylic acid], the minimal inhibitory concentration (MIC) in [1] fell in the range of 12.5 to 150 µg/mL (≈ 33.8 to 406 µM); in [2], 1 to 3.5 µg/mL (≈ 2.71 to 9.47 µM); in test [3], 12.5 to 150 µg/mL (≈ 33.8 to 406 µM); in test [4], 3.5 to 12.5 µg/mL (≈ 9.47 to 33.8 µM); in test [5] it was 12.5 to 150 µg/mL (≈ 33.8 to 406 µM); in [6], 12.5 to 150 µg/mL (≈ 33.8 to 406 µM). Besides, the MIC was in the range of 12.5 to 150 µg/mL (≈ 33.8 to 406 µM) in [7] (setting [10]), 3.5 to 12.5 µg/mL (≈ 9.47 to 33.8 µM) in test [8] and 12.5 to 150 µg/mL (≈ 33.8 to 406 µM) in test [9] (setting [11]).
